Reference: patent US20240024233A1, “Oral Hydrogel Compositions and Uses” (Colgate-Palmolive Company, priority 2020, published 2024)
Converted amounts (≈) assume the structure as drawn.

Assays:
[1] = test system: Actinomyces viscosus (ATCC #43146) and Streptococcus oralis (ATCC #35037); assay: Viability via SIKT with degraded oral gel; format: cell-based; conditions: for percentage of cells that are viable relative to PBS control: n = 6
From the text: For viability via SIKT, the same gel degradation procedure as described above is used to treat an overnight culture of Actinomyces viscosus (ATCC #43146) and Streptococcus oralis (ATCC #35037). […] Samples are then processed and the results are presented as a percentage of cells that are viable relative to a control sample treated with PBS alone (negative control).

[2] = in water; cited from earlier work
[3] = Tetrahydrocurcumin solubility (saturation) in hydrogel formulations, UV 280 nm; format: physicochemical; conditions: 4 °C, aqueous with cosolvent or surfactant or cyclodextrin, thermodynamic from solid; tested gels
Method: Tetrahydrocurcumin is a highly insoluble drug. It has water solubility of about 6 μg/mL, and this has severely limited attempts to evaluate its in vitro or in vivo potency as a drug because of the difficulty of formulating compositions which can effectively deliver it to body tissues. It is thus a useful reference for compositions intended to deliver low-solubility active agents.
A range of hydrogel formulations are prepared in cold (4° C.) deionized water. Each cold formulation liquid is loaded with tetrahydrocurcumin (0.3 mg/mL of gel) via dispersion with a Speed Mixing apparatus (FlackTek, Inc). Samples are left to interact at 4° C. for 48 hours. Formulations are centrifuged at 10,000 rpm for 60 seconds to separate undissolved active. The saturation of active is determined via UV absorbance at 280 nm.
Tetrahydrocurcumin is found to be soluble in the above tested gels at the following saturation concentrations: […]

CCO [Ethanol]
percentage of cells that are viable relative to PBS control, Average ([1]; Average of Day 0-28, n = 24): 16.3%
percentage of cells that are viable relative to PBS control ([1]; Day 0, 30 seconds treatment): 16.8%
percentage of cells that are viable relative to PBS control ([1]; Day 7, 30 seconds treatment): 14.5%
percentage of cells that are viable relative to PBS control ([1]; Day 14, 30 seconds treatment): 14.7%
percentage of cells that are viable relative to PBS control ([1]; Day 28, 30 seconds treatment): 19.0%

COc1cc(CCC(=O)CC(=O)CCc2ccc(O)c(OC)c2)ccc1O [Tetrahydrocurcumin]
water solubility [2]: about 6 μg/mL
solubility at 48 h [3]: 85 to 236 µg/mL (≈ 228 to 634 µM)
